Reference: patent US20110230476A1, “PI3 KINASE INHIBITORS AND USES THEREOF” (AVILA THERAPEUTICS, INC., priority 2009, published 2011)

Legend:
PI3Kα (p110α/p85α) = biological target: T1, PI3Kα (p110α/p85α) (Homo sapiens, UniProt P42336); test: HTRF assay, potency against active PI3Kα; assay type: biochemical; conditions: HTRF; [ATP]=50 μM, [di-C8-PIP2]=10 μM; 30 min pre-incubation; read-out: PI3Kα Inhibition
T1 construct: purchased BPS Bioscience (San Diego, Calif.) or Millipore (Billerica, Mass.)
T1 sequence (P42336 whole entry): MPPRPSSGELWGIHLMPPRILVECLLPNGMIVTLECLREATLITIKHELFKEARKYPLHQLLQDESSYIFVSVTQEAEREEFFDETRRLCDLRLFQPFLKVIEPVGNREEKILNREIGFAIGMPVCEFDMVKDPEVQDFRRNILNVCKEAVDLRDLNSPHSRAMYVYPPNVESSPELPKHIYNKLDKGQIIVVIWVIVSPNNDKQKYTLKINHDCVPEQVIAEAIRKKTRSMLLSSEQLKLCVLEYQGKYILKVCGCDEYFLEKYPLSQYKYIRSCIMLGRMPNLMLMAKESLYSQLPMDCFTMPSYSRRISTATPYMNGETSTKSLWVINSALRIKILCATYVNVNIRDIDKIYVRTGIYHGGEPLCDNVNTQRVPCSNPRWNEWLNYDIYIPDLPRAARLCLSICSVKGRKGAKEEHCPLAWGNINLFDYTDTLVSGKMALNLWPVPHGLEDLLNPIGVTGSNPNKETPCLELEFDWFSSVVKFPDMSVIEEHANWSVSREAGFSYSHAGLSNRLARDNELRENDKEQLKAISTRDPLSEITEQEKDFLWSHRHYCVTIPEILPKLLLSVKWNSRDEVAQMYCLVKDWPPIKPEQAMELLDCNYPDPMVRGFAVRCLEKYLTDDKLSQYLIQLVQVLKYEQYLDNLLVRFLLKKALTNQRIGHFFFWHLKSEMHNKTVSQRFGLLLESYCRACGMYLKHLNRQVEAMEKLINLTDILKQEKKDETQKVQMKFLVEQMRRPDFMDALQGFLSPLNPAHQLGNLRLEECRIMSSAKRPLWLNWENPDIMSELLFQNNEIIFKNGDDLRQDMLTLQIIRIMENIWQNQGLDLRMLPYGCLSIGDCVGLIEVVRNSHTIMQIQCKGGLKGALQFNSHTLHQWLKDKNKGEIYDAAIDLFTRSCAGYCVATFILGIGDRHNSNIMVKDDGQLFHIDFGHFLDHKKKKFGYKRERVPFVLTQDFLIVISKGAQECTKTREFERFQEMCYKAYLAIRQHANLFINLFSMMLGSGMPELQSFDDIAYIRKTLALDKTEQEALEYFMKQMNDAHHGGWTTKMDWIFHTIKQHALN
T1 sequence (P27986 whole entry partner): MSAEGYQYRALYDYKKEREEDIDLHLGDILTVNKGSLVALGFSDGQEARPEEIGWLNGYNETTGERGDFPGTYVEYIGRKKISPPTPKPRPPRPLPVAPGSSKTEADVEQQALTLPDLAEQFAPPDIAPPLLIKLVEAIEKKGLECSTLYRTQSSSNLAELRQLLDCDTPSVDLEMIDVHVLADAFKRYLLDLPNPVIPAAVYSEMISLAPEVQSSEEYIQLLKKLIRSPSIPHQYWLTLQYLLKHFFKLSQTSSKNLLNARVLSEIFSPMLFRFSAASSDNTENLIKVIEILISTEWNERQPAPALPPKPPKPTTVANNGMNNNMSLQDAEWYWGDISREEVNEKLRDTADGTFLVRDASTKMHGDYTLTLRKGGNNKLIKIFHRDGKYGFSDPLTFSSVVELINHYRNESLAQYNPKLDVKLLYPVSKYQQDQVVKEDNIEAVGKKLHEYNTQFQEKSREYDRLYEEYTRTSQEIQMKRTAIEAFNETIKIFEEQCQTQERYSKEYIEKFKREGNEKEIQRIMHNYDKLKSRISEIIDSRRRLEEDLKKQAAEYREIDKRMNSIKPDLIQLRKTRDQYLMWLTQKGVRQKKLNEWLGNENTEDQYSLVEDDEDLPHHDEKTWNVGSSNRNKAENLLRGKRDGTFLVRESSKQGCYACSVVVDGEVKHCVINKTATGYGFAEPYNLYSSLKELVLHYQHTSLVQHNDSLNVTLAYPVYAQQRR
Method in brief: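 Active p110/p85α lipid kinase reactions were started with ATP and run 30-60 minutes at 25 °C, then stopped and developed with HTRF detection mix. HTRF ratio converted to % inhibition against ±enzyme controls; IC50 from log[inhibitor] vs response, variable slope.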

PI3Kγ (p120γ) = biological target: T2, PI3Kγ (p120γ) (Homo sapiens, UniProt P48736); test: HTRF assay, potency against active PI3Kγ; assay type: biochemical; conditions: [ATP]=50 μM, [di-C8-PIP2]=10 μM, 30 min pre-incubation, read-out: PI3Kγ Inhibition
T2 construct: purchased BPS Bioscience (San Diego, Calif.) or Millipore (Billerica, Mass.)
T2 sequence (P48736 whole entry): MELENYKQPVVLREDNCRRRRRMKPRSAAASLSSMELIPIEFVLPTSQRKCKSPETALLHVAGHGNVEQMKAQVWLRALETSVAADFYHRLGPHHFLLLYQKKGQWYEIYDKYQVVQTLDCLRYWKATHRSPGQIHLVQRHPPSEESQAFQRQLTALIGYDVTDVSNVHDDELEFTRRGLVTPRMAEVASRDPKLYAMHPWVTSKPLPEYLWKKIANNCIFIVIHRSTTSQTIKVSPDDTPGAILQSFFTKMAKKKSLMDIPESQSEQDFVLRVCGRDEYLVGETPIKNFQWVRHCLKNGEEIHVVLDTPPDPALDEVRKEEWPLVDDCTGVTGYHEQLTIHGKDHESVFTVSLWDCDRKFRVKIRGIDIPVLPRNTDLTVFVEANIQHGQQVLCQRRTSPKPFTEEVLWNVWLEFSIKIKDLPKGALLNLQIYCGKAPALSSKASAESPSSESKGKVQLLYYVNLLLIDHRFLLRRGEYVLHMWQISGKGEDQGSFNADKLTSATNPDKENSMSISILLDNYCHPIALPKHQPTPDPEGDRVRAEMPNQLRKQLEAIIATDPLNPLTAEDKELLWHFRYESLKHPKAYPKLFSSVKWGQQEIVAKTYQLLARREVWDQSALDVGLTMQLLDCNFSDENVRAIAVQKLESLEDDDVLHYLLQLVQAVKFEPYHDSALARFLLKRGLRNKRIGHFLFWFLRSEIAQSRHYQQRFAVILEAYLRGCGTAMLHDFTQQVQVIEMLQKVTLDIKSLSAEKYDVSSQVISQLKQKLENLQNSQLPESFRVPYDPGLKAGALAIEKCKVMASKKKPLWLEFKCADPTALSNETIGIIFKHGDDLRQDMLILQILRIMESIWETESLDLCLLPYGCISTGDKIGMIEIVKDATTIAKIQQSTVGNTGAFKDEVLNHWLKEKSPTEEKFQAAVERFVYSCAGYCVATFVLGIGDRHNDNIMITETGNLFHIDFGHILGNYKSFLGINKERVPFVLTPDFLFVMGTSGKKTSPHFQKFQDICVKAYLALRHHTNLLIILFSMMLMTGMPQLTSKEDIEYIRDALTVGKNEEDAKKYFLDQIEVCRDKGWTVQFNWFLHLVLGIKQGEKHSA
From the text: Homogeneous Time Resolved Fluorescence (HTRF) Assay Protocol for Potency Assessment Against the Active Forms of PI3Kα, PI3Kβ, and PI3Kγ
The protocol below describes an end-point, competition-binding HTRF assay used to measure inherent potency of test compounds against active PI3Kα (p110α/p85α), PI3Kβ (p110β/p85α), and PI3Kγ (p120γ) enzymes. The mechanics of the assay platform are best described by the vendor (Millipore, Billerica, Mass.) on their website at the following URL: www.millipore.com/coa/tech1/74jt4z.
Briefly, Stop solution (Stop A, #33-007 and Stop B, #33-009; 3:1 ratio) and Detection Mix (from DMC, #33-015 with DMA, #33-011 and DMB, #33-013; 18:1:1 ratio) were prepared as recommended by the manufacturer about 2 hrs prior to use. Additionally, 1× reaction buffer (from 4× buffer stock# 33-003), 1.4× stocks of PI3Kα, PI3Kβ, and PI3Kγ enzymes from BPS Bioscience (San Diego, Calif.) or Millipore (Billerica, Mass.) with di-C8-PIP2 lipid substrate (#33-005), and a 4×ATP solution (#A7699 Sigma/Aldrich; St. Louis, Mo.) were prepared in 1× reaction buffer. 15 μL of PI3K enzymes and lipid substrate mix were pre-incubated in a Corning (#3573) 384-well, black, non-treated microtiter plate (Corning, N.Y.) for 30 min at 25° C. with a 0.5 μL volume of 50% DMSO and serially diluted compounds prepared in 50% DMSO. Lipid kinase reactions were started with the addition of 5 μL of ATP solution, mixed for 15 sec on a rotary plate shaker and incubated for 30-60 minutes at 25° C. Next, reactions were stopped with a 5 μL addition of Stop solution immediately followed by a 5 μL volume of Detection Mix. Stopped reactions were equilibrated for 1 and 18 hrs at room temperature and read in a Synergy^4 plate reader from BioTek (Winooski, Vt.) at λex330-80/λem620-35 and λem665-7.5. At the conclusion of each assay, the HTRF ratio from fluorescence emission values for each well was calculated and % Inhibition determined from averaged controls wells (+/−PI3K enzyme). % Inhibition values for each compound were then plotted against inhibitor concentration to estimate IC50 from log [Inhibitor] vs Response, Variable Slope model in GraphPad Prism from GraphPad Software (San Diego, Calif.).
[Reagent] used in optimized protocol: • [p110α/p85α]=0.5-1.5 nM, [ATP]=50 μM, [di-C8—PIP2]=10 μM • [p110β/p85α]=0.75 nM, [ATP]=50 μM, [di-C8—PIP2]=10 μM • [p120γ]=2-2.5 nM, [ATP]=50 μM, [di-C8—PIP2]=10 μM • (ATP KMapp for both enzymes was estimated to be 40-70 μM)

PI3K = PI3K HCT116 cellular assay (Western blot); assay type: cell-based; conditions: Homo sapiens, HCT-116, HCT116 colon cancer cells, 1 hour incubation, read-out: PI3K Inhibition
Experimental: PI3K HCT116 Cellular Assay
Selected compounds were assayed in HCT116 colon cancer cells. […] Cells were then washed with PBS, lysed and the protein lysates were then recovered and analyzed by Western blot.

SMILES	IC50 (PI3Kα (p110α/p85α))	IC50 (PI3Kγ (p120γ))	EC50 (PI3K)
C=CC(=O)N1CCN(CC#Cc2cc3nc(-c4cccc(O)c4)nc(N4CCOCC4)c3s2)CC1 [II-a-47, 1-(4-(3-(2-(3-hydroxyphenyl)-4-morpholinothieno[3,2-d]pyrimidin-6-yl)prop-2-ynyl)piperazin-1-yl)prop-2-en-1-one]	0.01 to 0.1 µM	> 1 µM	0.1 to 0.5 µM
C/C=C/C(=O)CCC(=O)NCCS(=O)(=O)N1CCN(Cc2cc3nc(-c4cccc(O)c4)nc(N4CCOCC4)c3s2)CC1 [II-a-26, (E)-N-(2-(4-((2-(3-hydroxyphenyl)-4-morpholinothieno[3,2-d]pyrimidin-6-yl)methyl)piperazin-1-ylsulfonyl)ethyl)-4-oxohept-5-enamide]	0.01 to 0.1 µM	0.1 to 1 µM	0.02 to 0.1 µM
O=C1NC(=O)/C(=C/c2ccc3nccc(-c4ccncc4)c3c2)S1 [GSK-615, reference compound]			< 0.02 µM
CC(C)=CC(=O)CCC(=O)NCCS(=O)(=O)N1CCN(Cc2cc3nc(-c4cccc(O)c4)nc(N4CCOCC4)c3s2)CC1 [II-a-28, N-(2-(4-((2-(3-hydroxyphenyl)-4-morpholinothieno[3,2-d]pyrimidin-6-yl)methyl)piperazin-1-ylsulfonyl)ethyl)-6-methyl-4-oxohept-5-enamide]	0.1 to 1 µM	0.1 to 1 µM	0.02 to 0.1 µM
CC(C)(C)C#CC(=O)CC[C@H](NC(=O)OC(C)(C)C)C(=O)N1CCN(Cc2cc3nc(-c4cccc5[nH]ncc45)nc(N4CCOCC4)c3s2)CC1 [II-a-51, (S)-tert-butyl 1-(4-((2-(1H-indazol-4-yl)-4-morpholinothieno[3,2-d]pyrimidin-6-yl)methyl)piperazin-1-yl)-8,8-dimethyl-1,5-dioxonon-6-yn-2-ylcarbamate]	0.1 to 1 µM	> 1 µM	
C=CC(=O)n1cc(-c2ccc3c(c2)N(c2nc4c(s2)C(=O)NC(C)(C)C4)CCO3)cn1 [VI-1, 2-(6-(1-acryloyl-1H-pyrazol-4-yl)-2H-benzo[b][1,4]oxazin-4(3H)-yl)-6,6-dimethyl-6,7-dihydrothiazolo[5,4-c]pyridin-4(5H)-one]	> 1 µM	0.1 to 1 µM	
C=CC(=O)N[C@H]1CC[C@H](C(=O)N(C)Cc2cc3nc(-c4cccc(O)c4)nc(N4CCOCC4)c3s2)CC1 [II-a-42]	> 1 µM	> 1 µM	
CC(C)(C)/C=C\C(=O)CC[C@H](NC(=O)OC(C)(C)C)C(=O)N1CCN(Cc2cc3nc(-c4cccc5[nH]ncc45)nc(N4CCOCC4)c3s2)CC1 [II-a-52, (S)-tert-butyl 1-(4-((2-(1H-indazol-4-yl)-4-morpholinothieno[3,2-d]pyrimidin-6-yl)methyl)piperazin-1-yl)-8,8-dimethyl-1,5-dioxonon-6-en-2-ylcarbamate]	0.1 to 1 µM	> 1 µM	
C=CC(=O)N(C)CC(=O)N1CCN(Cc2cc3nc(-c4cccc5[nH]ncc45)nc(N4CCOCC4)c3s2)CC1 [II-a-44, N-(2-(4-((2-(1H-indazol-4-yl)-4-morpholinothieno[3,2-d]pyrimidin-6-yl)methyl)piperazin-1-yl)-2-oxoethyl)-N-methylacrylamide]	> 1 µM	> 1 µM	
C/C=C/C(=O)CCC(=O)N1CCN(c2ccnc3ccc(/C=C4\SC(=O)NC4=O)cc23)CC1 [V-2, (Z)-5-((4-(4-((E)-4-oxohept-5-enoyl)piperazin-1-yl)quinolin-6-yl)methylene)thiazolidine-2,4-dione]	0.1 to 1 µM	> 1 µM	
C=CC(=O)NCC(=O)N1CCN(Cc2cc3nc(-c4cccc(O)c4)nc(N4CCOCC4)c3s2)CC1 [II-a-38, N-(2-(4-((2-(3-hydroxyphenyl)-4-morpholinothieno[3,2-d]pyrimidin-6-yl)methyl)piperazin-1-yl)-2-oxoethyl)acrylamide]	0.01 to 0.1 µM	> 1 µM	
C=CC(=O)NCCS(=O)(=O)N1CCN(Cc2cc3nc(-c4cccc5[nH]ncc45)nc(N4CCOCC4)c3s2)CC1 [II-a-13, N-(2-(4-((2-(1H-indazol-4-yl)-4-morpholinothieno[3,2-d]pyrimidin-6-yl)methyl)piperazin-1-ylsulfonyl)ethyl)acrylamide]	0.01 to 0.1 µM	> 1 µM	
C=CC(=O)N1Cc2ccc(-c3cc4nc(-c5cccc(O)c5)nc(N5CCOCC5)c4s3)cc2C1 [II-a-27, 1-(5-(2-(3-hydroxyphenyl)-4-morpholinothieno[3,2-d]pyrimidin-6-yl)isoindolin-2-yl)prop-2-en-1-one]	0.1 to 1 µM	> 1 µM	
C=CC(=O)N1CCN(C(=O)C2CCN(Cc3cc4nc(-c5cccc(O)c5)nc(N5CCOCC5)c4s3)CC2)CC1 [II-a-34, (1-((2-(3-hydroxyphenyl)-4-morpholinothieno[3,2-d]pyrimidin-6-yl)methyl)piperidin-4-yl)(4-acryloyl-piperazin-1-yl)methanone]	0.1 to 1 µM	> 1 µM	
C/C=C/C(=O)CCC(=O)NCCS(=O)(=O)N1CCN(Cc2cc3nc(-c4cccc5[nH]ncc45)nc(N4CCOCC4)c3s2)CC1 [II-a-23, (E)-N-(2-(4-((2-(1H-indazol-4-yl)-4-morpholinothieno[3,2-d]pyrimidin-6-yl)methyl)piperazin-1-ylsulfonyl)ethyl)-4-oxohept-5-enamide]	0.1 to 1 µM	> 1 µM	
O=C(/C=C/CNC(=O)CCCC(=O)NCCCOCCOCCOCCCNC(=O)CCCC[C@@H]1SC[C@@H]2NC(=O)N[C@@H]21)CCC(=O)N1CCN(Cc2cc3nc(-c4cccc5[nH]ncc45)nc(N4CCOCC4)c3s2)CC1 [XIV-a-2, N1-((E)-7-(4-((2-(1H-indazol-4-yl)-4-morpholinothieno[3,2-d]pyrimidin-6-yl)methyl)piperazin-1-yl)-4,7-dioxohept-2-enyl)-N5-(15-oxo-19-((3aS,4S,6aR)-2-oxohexahydro-1H-thieno[3,4-d]imidazol-4-yl)-4,7,10-trioxa-14-azanonadecyl)glutaramide]	> 1 µM	> 1 µM	
C=CC(=O)NCCN1CCN(Cc2cc3nc(-c4cccc5[nH]ncc45)nc(N4CCOCC4)c3s2)CC1 [II-a-59]	> 1 µM	> 1 µM	
C=CC(=O)N1CCN(C(=O)c2ccc(-c3cc4nc(-c5cccc6[nH]ncc56)nc(N5CCOCC5)c4s3)cc2)CC1 [II-a-57, 1-(4-(4-(2-(1H-indazol-4-yl)-4-morpholinothieno[3,2-d]pyrimidin-6-yl)benzoyl)piperazin-1-yl)prop-2-en-1-one]	0.1 to 1 µM	> 1 µM	
C=CC(=O)N1CCN(Cc2cc3nc(-c4ccccc4)nc(N4CCOCC4)c3s2)CC1 [II-a-17, 1-(4-((4-morpholino-2-phenylthieno[3,2-d]pyrimidin-6-yl)methyl)piperazin-1-yl)prop-2-en-1-one]	> 1 µM	> 1 µM	
C=CC(=O)N(C)Cc1cc2nc(-c3cccc(O)c3)nc(N3CCOCC3)c2s1 [II-a-39, N-((2-(3-hydroxyphenyl)-4-morpholinothieno[3,2-d]pyrimidin-6-yl)methyl)-N-methylacrylamide]	0.01 to 0.1 µM	> 1 µM	
CN(C/C=C/C(=O)CCC(=O)N1CCN(Cc2cc3nc(-c4cccc5[nH]ncc45)nc(N4CCOCC4)c3s2)CC1)C(=O)OC(C)(C)C [II-a-24]	0.01 to 0.1 µM	> 1 µM	
CN(C)C/C=C/C(=O)NCC(=O)N1CCN(Cc2cc3nc(-c4cccc5[nH]ncc45)nc(N4CCOCC4)c3s2)CC1 [II-a-56, (E)-N-(2-(4-((2-(1H-indazol-4-yl)-4-morpholinothieno[3,2-d]pyrimidin-6-yl)methyl)piperazin-1-yl)-2-oxoethyl)-4-(dimethylamino)but-2-enamide]	0.1 to 1 µM	> 1 µM	
